One assay deals with Candida albicans. The assay can be described thus: Antifungal activity against Candida albicans clinical isolate 2 assessed as fungal growth inhibition at <= […] uM measured after 48 hrs by resazurin assay. The assay is classed as functional, organism-based.
Another assay relates to Cryptococcus neoformans. As to the kind of experiment: Antifungal activity against Cryptococcus neoformans H99 assessed as fungal growth inhibition at <= […] uM measured after 48 hrs by resazurin assay. In kind it is functional, organism-based. For orientation: Resazurin is reduced to fluorescent resorufin, in cell work by metabolically active cells.

Activity calls are given as the source filed them. No rule for the calls is given here.

For `COc1ccc(Cn2nc(C)cc2Nc2cc(O)cc(O)c2C(=O)N2Cc3cccnc3C2)cc1`, the result in the assay with Candida albicans and in the assay on Cryptococcus neoformans was Active.
In the case of `O=C(c1c(O)cc(O)cc1Nc1ccnn1Cc1ccccc1)N1Cc2cn[nH]c2C1`, the outcome in the assay on Candida albicans and in the assay on Cryptococcus neoformans was Active.
Turning to `COc1ccc(Cn2nc(C3CC3)cc2Nc2cc(O)cc(O)c2C(=O)N2Cc3cn[nH]c3C2)cc1`, the outcome in the assay on Candida albicans and with Cryptococcus neoformans was Active.
On to `Cc1ccc(Cn2nc(C)cc2Nc2cc(O)cc(O)c2C(=O)N2Cc3ccccc3C2)cc1`, for which the outcome in the assay with Candida albicans and with Cryptococcus neoformans was Active.
Turning to `O=C(c1c(O)cc(O)cc1Nc1ccnn1Cc1ccco1)N1Cc2cccnc2C1`, the outcome in the assay on Candida albicans and with Cryptococcus neoformans was Active.
As for `Cc1cc(Nc2cc(O)cc(O)c2C(=O)N2Cc3ccccc3C2)n(Cc2ccccc2C)n1`, the result in the assay with Candida albicans and in the assay with Cryptococcus neoformans was Active.
For the molecule `Cn1nc(-c2ccccc2)cc1Nc1cc(O)cc(O)c1C(=O)N1Cc2ccccc2C1`, the result with Candida albicans and in the assay with Cryptococcus neoformans was Active.
As for `CC(C)n1nccc1Nc1cc(O)cc(O)c1C(=O)N1Cc2cn[nH]c2C1`, the result in the assay on Candida albicans and with Cryptococcus neoformans was Active.
As to `COc1ccc(Cn2nc(-c3ccccc3)cc2Nc2cc(O)cc(O)c2C(=O)N2Cc3cn[nH]c3C2)cc1`, the result with Candida albicans and in the assay on Cryptococcus neoformans was Active.
For `COc1ccc(Cn2nc(-c3ccccc3)cc2Nc2cc(O)cc(O)c2C(=O)N2Cc3cccc(F)c3C2)cc1`, the outcome in the assay on Candida albicans and with Cryptococcus neoformans was Active.
With `COc1ccc(Cn2nc(-c3ccccc3)cc2Nc2cc(O)cc(O)c2C(=O)N2Cc3ccc(F)cc3C2)cc1`, the outcome in the assay with Candida albicans and with Cryptococcus neoformans was Active.
Take `CC(C)c1ccc(Cn2nccc2Nc2cc(O)cc(O)c2C(=O)N2Cc3cccnc3C2)cc1`: the outcome in the assay with Candida albicans and in the assay on Cryptococcus neoformans was Active.
For `COc1ccc(Cn2nc(-c3ccoc3)cc2Nc2cc(O)cc(O)c2C(=O)N2Cc3cn[nH]c3C2)cc1`, the outcome in the assay with Candida albicans and in the assay on Cryptococcus neoformans was Active.
`COc1ccc(Cn2nc(C)cc2Nc2cc(O)cc(O)c2C(=O)N2Cc3ccc(N4CCN(C)CC4)cc3C2)cc1`: the outcome in the assay on Candida albicans and with Cryptococcus neoformans was Active.
Consider `COc1ccc(Cn2nc(-c3ccoc3)cc2Nc2cc(O)cc(O)c2C(=O)N2Cc3cccnc3C2)cc1`, for which the result with Candida albicans and with Cryptococcus neoformans was Active.
In the case of `Cn1nc(-c2cccc(C(F)(F)F)c2)cc1Nc1cc(O)cc(O)c1C(=O)N1Cc2cn[nH]c2C1`, the result with Candida albicans and in the assay on Cryptococcus neoformans was Active.
For the molecule `O=C(c1c(O)cc(O)cc1Nc1ccnn1Cc1cccnc1)N1Cc2cn[nH]c2C1`, the result with Candida albicans and with Cryptococcus neoformans was Active.
For `COc1ccc(Cn2nc(C)cc2Nc2cc(O)cc(O)c2C(=O)N2Cc3ccc(NC4CCN(C)CC4)cc3C2)cc1`, the outcome in the assay on Candida albicans and in the assay with Cryptococcus neoformans was Active.
Consider `CCc1cc(Nc2cc(O)cc(O)c2C(=O)N2Cc3cn[nH]c3C2)n(Cc2ccc(OC)cc2)n1`, for which the outcome in the assay with Candida albicans and in the assay with Cryptococcus neoformans was Active.
For the molecule `Cn1nc(-c2cccc(C(F)(F)F)c2)cc1Nc1cc(O)cc(O)c1C(=O)N1Cc2ccccc2C1`, the outcome with Candida albicans and in the assay on Cryptococcus neoformans was Active.
`CC(C)Cn1nccc1Nc1cc(O)cc(O)c1C(=O)N1Cc2cccnc2C1`: the result in the assay on Candida albicans and in the assay with Cryptococcus neoformans was Active.
As to `COc1ccc(Cn2nc(C(C)C)cc2Nc2cc(O)cc(O)c2C(=O)N2Cc3cccnc3C2)cc1`, the outcome with Candida albicans and in the assay on Cryptococcus neoformans was Active.
For the molecule `O=C(c1c(O)cc(O)cc1Nc1ccnn1Cc1ccc(C(F)(F)F)cc1)N1Cc2cn[nH]c2C1`, the result in the assay with Candida albicans and in the assay with Cryptococcus neoformans was Active.
Consider `COc1ccc(Cn2nc(C3CCCC3)cc2Nc2cc(O)cc(O)c2C(=O)N2Cc3cccnc3C2)cc1`, for which the result with Candida albicans and in the assay on Cryptococcus neoformans was Active.
Consider `Cc1ccc(-c2cc(Nc3cc(O)cc(O)c3C(=O)N3Cc4cccnc4C3)n(C)n2)cc1`, for which the result with Candida albicans and with Cryptococcus neoformans was Active.
Take `COc1ccc(Cn2nc(C)cc2Nc2cc(O)cc(O)c2C(=O)N2Cc3cn[nH]c3C2)cc1`: the outcome with Candida albicans and in the assay on Cryptococcus neoformans was Active.
For the molecule `COc1ccc(Cn2ncc(-c3ccccc3)c2Nc2cc(O)cc(O)c2C(=O)N2Cc3ccccc3C2)cc1`, the result with Candida albicans and with Cryptococcus neoformans was Active.
`Cn1nc(-c2ccccc2)cc1Nc1cc(O)cc(O)c1C(=O)N1Cc2cccnc2C1`: the result in the assay with Candida albicans and in the assay on Cryptococcus neoformans was Active.
Turning to `Cn1nccc1Nc1cc(O)cc(O)c1C(=O)N1Cc2ccccc2C1`, the result in the assay on Candida albicans and in the assay with Cryptococcus neoformans was Active.
On to `O=C(c1c(O)cc(O)cc1Nc1ccnn1Cc1ccc(C(F)(F)F)cc1)N1Cc2cccnc2C1`, for which the outcome in the assay with Candida albicans and with Cryptococcus neoformans was Active.
Take `Cc1cccc(-c2cc(Nc3cc(O)cc(O)c3C(=O)N3Cc4cccnc4C3)n(C)n2)c1`: the result in the assay with Candida albicans and with Cryptococcus neoformans was Active.
Take `O=C(c1c(O)cc(O)cc1Nc1ccnn1CC1CCCCC1)N1Cc2cn[nH]c2C1`: the result in the assay with Candida albicans and in the assay with Cryptococcus neoformans was Active.
With `O=C(c1c(O)cc(O)cc1Nc1ccnn1Cc1ccco1)N1Cc2ccccc2C1`, the result in the assay on Candida albicans and with Cryptococcus neoformans was Active.
On to `COc1ccc(-c2cc(Nc3cc(O)cc(O)c3C(=O)N3Cc4cccnc4C3)n(C)n2)cc1`, for which the outcome in the assay with Candida albicans and with Cryptococcus neoformans was Active.
Turning to `CC(C)n1nccc1Nc1cc(O)cc(O)c1C(=O)N1Cc2ccccc2C1`, the outcome in the assay with Candida albicans and in the assay with Cryptococcus neoformans was Active.
Regarding `COc1ccc(Cn2nc(C3CC3)cc2Nc2cc(O)cc(O)c2C(=O)N2Cc3cccnc3C2)cc1`, the result with Candida albicans and with Cryptococcus neoformans was Active.
Consider `COc1ccc(Cn2ncc(C(C)C)c2Nc2cc(O)cc(O)c2C(=O)N2Cc3ccccc3C2)cc1`, for which the result in the assay with Candida albicans and with Cryptococcus neoformans was Active.
Regarding `Cn1nccc1Nc1cc(O)cc(O)c1C(=O)N1Cc2cn[nH]c2C1`, the outcome in the assay with Candida albicans and in the assay on Cryptococcus neoformans was Active.
Turning to `Cc1ccc(-c2cc(Nc3cc(O)cc(O)c3C(=O)N3Cc4cn[nH]c4C3)n(C)n2)cc1`, the outcome with Candida albicans and in the assay with Cryptococcus neoformans was Active.
`Cn1nc(-c2ccccc2)cc1Nc1cc(O)cc(O)c1C(=O)N1Cc2cn[nH]c2C1`: the outcome with Candida albicans and in the assay on Cryptococcus neoformans was Active.
For the molecule `COc1ccc(Cn2nc(C)cc2Nc2cc(O)cc(O)c2C(=O)N2Cc3ccc(F)cc3C2)cc1`, the result with Candida albicans and in the assay with Cryptococcus neoformans was Active.
For the molecule `CC(C)n1nccc1Nc1cc(O)cc(O)c1C(=O)N1Cc2cccnc2C1`, the outcome in the assay on Candida albicans and in the assay with Cryptococcus neoformans was Active.
For `CC(C)c1cc(Nc2cc(O)cc(O)c2C(=O)N2Cc3ccccc3C2)n(C)n1`, the result in the assay with Candida albicans and in the assay on Cryptococcus neoformans was Active.
Take `COc1ccc(Cn2nc(C)cc2Nc2cc(O)cc(O)c2C(=O)N2Cc3ccc(OCCN(C)C)cc3C2)cc1`: the result with Candida albicans and in the assay with Cryptococcus neoformans was Active.
In the case of `COc1ccc(Cn2nc(-c3ccccc3)cc2Nc2cc(O)cc(O)c2C(=O)N2Cc3ccc(OCCN(C)C)cc3C2)cc1`, the outcome in the assay on Candida albicans and with Cryptococcus neoformans was Active.
As to `O=C(c1c(O)cc(O)cc1Nc1ccnn1C1CCCCC1)N1Cc2ccccc2C1`, the result in the assay with Candida albicans and in the assay on Cryptococcus neoformans was Active.
Turning to `COc1ccc(Cn2nc(-c3ccccc3)cc2Nc2cc(O)cc(O)c2C(=O)N2Cc3cccnc3C2)cc1`, the outcome in the assay on Candida albicans and in the assay on Cryptococcus neoformans was Active.
For the molecule `CC(C)Cn1nc(-c2ccccc2)cc1Nc1cc(O)cc(O)c1C(=O)N1Cc2cccnc2C1`, the result with Candida albicans and with Cryptococcus neoformans was Active.
Turning to `COc1ccc(Cn2nccc2Nc2cc(O)cc(O)c2C(=O)N2Cc3ccccc3C2)cc1`, the result with Candida albicans and with Cryptococcus neoformans was Active.
For `COc1ccc(Cn2nc(C3CCCC3)cc2Nc2cc(O)cc(O)c2C(=O)N2Cc3cn[nH]c3C2)cc1`, the outcome in the assay on Candida albicans and in the assay on Cryptococcus neoformans was Active.
Consider `O=C(c1c(O)cc(O)cc1Nc1ccnn1Cc1cccnc1)N1Cc2ccccc2C1`, for which the outcome in the assay on Candida albicans and in the assay on Cryptococcus neoformans was Active.
As to `Cn1nccc1Nc1cc(O)cc(O)c1C(=O)N1Cc2cccnc2C1`, the outcome with Candida albicans and with Cryptococcus neoformans was Active.
As to `Cc1ccc(-c2cc(Nc3cc(O)cc(O)c3C(=O)N3Cc4ccccc4C3)n(C)n2)cc1`, the outcome with Candida albicans and with Cryptococcus neoformans was Active.
Turning to `Cn1nc(-c2ccc(C(C)(C)C)cc2)cc1Nc1cc(O)cc(O)c1C(=O)N1Cc2ccccc2C1`, the outcome in the assay with Candida albicans and with Cryptococcus neoformans was Active.
In the case of `O=C(c1c(O)cc(O)cc1Nc1ccnn1Cc1ccccc1)N1Cc2ccccc2C1`, the outcome with Candida albicans and in the assay on Cryptococcus neoformans was Active.
Consider `O=C(c1c(O)cc(O)cc1Nc1cc(-c2ccccc2)nn1C1CCCCC1)N1Cc2cn[nH]c2C1`, for which the outcome in the assay with Candida albicans and with Cryptococcus neoformans was Active.
Regarding `CC(C)(C)n1nc(-c2ccccc2)cc1Nc1cc(O)cc(O)c1C(=O)N1Cc2cccnc2C1`, the outcome in the assay on Candida albicans and with Cryptococcus neoformans was Active.
Take `Cn1nc(-c2ccc(C(C)(C)C)cc2)cc1Nc1cc(O)cc(O)c1C(=O)N1Cc2cccnc2C1`: the outcome with Candida albicans and in the assay with Cryptococcus neoformans was Active.

Source of the values: ChEMBL document CHEMBL4402526, “Design and Synthesis of Fungal-Selective Resorcylate Aminopyrazole Hsp90 Inhibitors” (J Med Chem, 2020).
